Results published in patent publication US20220378756A1, “ACTIVATING PYRUVATE KINASE R” (FORMA Therapeutics, Inc., priority 2019, published 2022).

Test system: 2,3-DPG, ATP and p50 in blood
Assay: Phase 1 SAD/MAD, healthy volunteers: pharmacodynamics
Type: in vivo, human
Settings: for median reduction in the concentration of 2,3-DPG, relative to baseline: HV MAD; for Median Percentage Change in 2,3-DPG Levels / Median Percentage Change in ATP Levels (Day 14) / Mean Absolute Change in p50 (mmHg) (Day 14): HV; for Mean Absolute Change in p50 (mmHg) (Day 14): vs baseline
Text: This is a first-in-human (FIH), Phase 1 study of Compound 1 that will characterize the safety, PK, and PD of Compound 1 after a single dose and after repeated dosing first in healthy adult volunteers and then in adolescents or adults with sickle cell disease. Initially, a dose range of Compound 1 in single ascending dose (SAD) escalation cohorts will be explored in healthy subjects. Enrollment of healthy subjects into 2-week multiple ascending dose (MAD) escalation cohorts will be initiated once the safety and PK from at least two SAD cohorts is available to inform the doses for the 2-week MAD portion of the study. The MAD cohorts will then run in parallel to the single dose cohorts. A single dose cohort is planned to understand food effects (FE) on the PK of Compound 1. […] Multiple dose studies in SCD subjects will then be initiated upon completion of MAD studies in healthy volunteers. Compound 1 will be administered in 25 mg and 100 mg tablets delivered orally.
In this study, SAD/MAD cohorts are randomized (3 to 1) to receive Compound 1 or placebo (P). Compound 1 was evaluated first in 4 healthy SAD cohorts and 4 healthy MAD (14-day dosing period) cohorts. Based on the safety, and PK/PD profile from HS, Compound 1 is then evaluated in 1 SCD SAD cohort and 2 SCD MAD cohorts. Specifically, based on the safety and pharmacokinetic/pharmacodynamics (PK/PD) profile in healthy volunteer studies, Compound 1 is evaluated in patients (pts) with SCD, first in a single dose (SD or SAD) cohort and then in multiple-dose (MD or MAD) cohorts (14-day and 12-week). Safety assessments include AEs, vital signs, ECGs and laboratory parameters. PK/PD blood sampling was performed on Day 1 (SAD/MAD) and Day 14 (MAD) and up to 72 h after the last dose and at the end-of-study visit. PD parameters included 2,3-DPG, ATP, and p50 in all cohorts with additional PD studies (including oxygen scan) performed only in the SCD cohorts. PD parameters included 2,3-DPG, ATP, p50, RBC deformability with controlled deoxygenation and reoxygenation (Lorrca® oxygen scan) and varying osmolality (Lorrca® osmoscan)). To maintain study blind, pt identifiers were removed when needed.
Four healthy SAD cohorts were evaluated at doses of 200, 400, 700, and 1000 mg, and four healthy MAD cohorts received 200 to 600 mg total daily doses for 14 days at QD or BID dosing (100 mg BID, 200 mg BID, 300 mg BID, and 400 mg QD). In the food effect (FE) cohort, 10 healthy subjects received 200 mg of Compound 1 QD with and without food.
In the SAD cohorts, the subjects' blood 2,3-DPG levels were measured periodically after dosing by a qualified LC-MS/MS method for the quantitation of 2,3-DPG in blood. Decreased 2,3-DPG blood levels were observed 6 hours following a single dose of Compound 1 at all dose levels (earlier timepoints were not collected). Maximum decreases in 2,3-DPG levels generally occurred ˜24 hours after the first dose with the reduction sustained ˜48-72 hr postdose. Table 16 reports the median percentage change in 2,3-DPG blood levels, relative to baseline, measured over time in healthy volunteers after a single dose of Compound 1 (200 mg, 400 mg, 700 mg, or 1000 mg) or placebo. Accordingly, the median reduction in the concentration of 2,3-DPG, relative to baseline, was at least about […] at all dose levels tested 24 hours after administration of the single dose.
In the MAD cohorts, the subjects' blood 2,3-DPG levels were measured periodically after dosing by a qualified LC-MS/MS method for the quantitation of 2,3-DPG in blood. The maximum decrease in 2,3-DPG on Day 14 was 55% from baseline (median). […] Table 18 reports the median percentage change in 2,3-DPG blood levels, relative to baseline, measured over time after the first dose on days 1 and 14 in healthy volunteers who received daily doses of Compound 1 (100 mg BID, 200 mg BID, or 300 mg BID) or placebo for 14 days. […]

[1] = 100 mg BID, Day 14, 0 h after first daily dose
[2] = 100 mg BID, Day 14, 6 h after first daily dose
[3] = 100 mg BID, Day 14, 8 h after first daily dose
[4] = 100 mg BID, Day 14, 12 h after first daily dose
[5] = 100 mg BID, Day 14, 16 h after first daily dose
[6] = 100 mg BID, Day 14, 24 h after first daily dose
[7] = 100 mg BID, Day 14, 48 h after first daily dose
[8] = 100 mg BID, Day 14, 72 h after first daily dose
[9] = 200 mg BID, Day 14, 0 h after first daily dose
[10] = 200 mg BID, Day 14, 6 h after first daily dose
[11] = 200 mg BID, Day 14, 8 h after first daily dose
[12] = 200 mg BID, Day 14, 12 h after first daily dose
[13] = 200 mg BID, Day 14, 16 h after first daily dose
[14] = 200 mg BID, Day 14, 24 h after first daily dose
[15] = 200 mg BID, Day 14, 48 h after first daily dose
[16] = 200 mg BID, Day 14, 72 h after first daily dose

SMILES: O=C([C@H](CO)c1ccccc1)N1CC2=C(C1)CN(S(=O)(=O)c1cnc3c(c1)OCCO3)C2 (single isomer, unassigned) [Compound 1]
- maximum decrease in 2,3-DPG from baseline (median) (HV MAD cohorts, Day 14): 55%
- median reduction in the concentration of 2,3-DPG, relative to baseline (all dose levels, 24 hours after first dose on day 1): at least 25%
- median reduction in the concentration of 2,3-DPG, relative to baseline (all dose levels, 24 hours after first dose on day 14): at least 40%
- median reduction of p50 (HV SAD, all dose levels, 24 hours after a single dose): 3-5 mmHg
- Median Percentage Change in 2,3-DPG Levels (100 mg BID, Day 1, 0 h after first daily dose): 0.0%
- Median Percentage Change in 2,3-DPG Levels (100 mg BID, Day 1, 6 h after first daily dose): −16.1%
- Median Percentage Change in 2,3-DPG Levels (100 mg BID, Day 1, 8 h after first daily dose): −12.1%
- Median Percentage Change in 2,3-DPG Levels (100 mg BID, Day 1, 12 h after first daily dose): −18.1%
- Median Percentage Change in 2,3-DPG Levels (100 mg BID, Day 1, 16 h after first daily dose): −18.4%
- Median Percentage Change in 2,3-DPG Levels (100 mg BID, Day 1, 24 h after first daily dose): −27.8%
- Median Percentage Change in 2,3-DPG Levels [1]: −42.0%
- Median Percentage Change in ATP Levels (Day 14) [1]: 41.5%
- Median Percentage Change in 2,3-DPG Levels [2]: −44.3%
- Median Percentage Change in ATP Levels (Day 14) [2]: 43.8%
- Median Percentage Change in 2,3-DPG Levels [3]: −44.7%
- Median Percentage Change in ATP Levels (Day 14) [3]: 47.8%
- Median Percentage Change in 2,3-DPG Levels [4]: −43.6%
- Median Percentage Change in ATP Levels (Day 14) [4]: 45.4%
- Median Percentage Change in 2,3-DPG Levels [5]: −43.9%
- Median Percentage Change in ATP Levels (Day 14) [5]: 44.8%
- Median Percentage Change in 2,3-DPG Levels [6]: −44.1%
- Median Percentage Change in ATP Levels (Day 14) [6]: 55.0%
- Median Percentage Change in 2,3-DPG Levels [7]: −34.7%
- Median Percentage Change in ATP Levels (Day 14) [7]: 52.2%
- Median Percentage Change in 2,3-DPG Levels [8]: −20.2%
- Median Percentage Change in ATP Levels (Day 14) [8]: 49.2%
- Mean Absolute Change in p50 (mmHg) (Day 14) (200 mg BID for 14 days): −4.14 mmHg
- Median Percentage Change in 2,3-DPG Levels (200 mg BID, Day 1, 0 h after first daily dose): 0.0%
- Median Percentage Change in 2,3-DPG Levels (200 mg BID, Day 1, 6 h after first daily dose): −13.1%
- Median Percentage Change in 2,3-DPG Levels (200 mg BID, Day 1, 8 h after first daily dose): −22.3%
- Median Percentage Change in 2,3-DPG Levels (200 mg BID, Day 1, 12 h after first daily dose): −23.1%
- Median Percentage Change in 2,3-DPG Levels (200 mg BID, Day 1, 16 h after first daily dose): −33.9%
- Median Percentage Change in 2,3-DPG Levels (200 mg BID, Day 1, 24 h after first daily dose): −43.5%
- Median Percentage Change in 2,3-DPG Levels [9]: −48.2%
- Median Percentage Change in ATP Levels (Day 14) [9]: 55.3%
- Median Percentage Change in 2,3-DPG Levels [10]: −48.5%
- Median Percentage Change in ATP Levels (Day 14) [10]: 48.1%
- Median Percentage Change in 2,3-DPG Levels [11]: −44.3%
- Median Percentage Change in ATP Levels (Day 14) [11]: 58.4%
- Median Percentage Change in 2,3-DPG Levels [12]: −42.2%
- Median Percentage Change in ATP Levels (Day 14) [12]: 56.2%
- Median Percentage Change in 2,3-DPG Levels [13]: −42.9%
- Median Percentage Change in ATP Levels (Day 14) [13]: 57.0%
- Median Percentage Change in 2,3-DPG Levels [14]: −44.3%
- Median Percentage Change in ATP Levels (Day 14) [14]: 64.0%
- Median Percentage Change in 2,3-DPG Levels [15]: −38.7%
- Median Percentage Change in ATP Levels (Day 14) [15]: 58.9%
- Median Percentage Change in 2,3-DPG Levels [16]: −20.2%
- Median Percentage Change in ATP Levels (Day 14) [16]: 54.0%
- Mean Absolute Change in p50 (mmHg) (Day 14) (300 mg BID for 14 days): −5.34 mmHg
- Median Percentage Change in 2,3-DPG Levels (300 mg BID, Day 1, 0 h after first daily dose): 0.0%
- Median Percentage Change in 2,3-DPG Levels (300 mg BID, Day 1, 6 h after first daily dose): −18.8%
- Median Percentage Change in 2,3-DPG Levels (300 mg BID, Day 1, 8 h after first daily dose): −23.8%
- Median Percentage Change in 2,3-DPG Levels (300 mg BID, Day 1, 12 h after first daily dose): −31.6%
